Laboratory results from doi:10.1101/758409v1 (biorxiv, 2019).

Biological target: DDA1-DDB1ΔB-DCAF15Δpro triplex with R1R2 of RBM39 (Homo sapiens, UniProt Q14498+Q66K64, Q66K64:DEL276-383)
Test: TR-FRET, SPLAM-induced ternary complex formation, Eu-anti-His and APC-anti-FLAG
Assay type: binding

## NS(=O)(=O)c1ccc(S(=O)(=O)Nc2cccc3c(Cl)c[nH]c23)cc1 [indisulam]
  EC50: 5 nM
